Test results published in US20060148763A1, “Compounds and methods for regulating triglyceride levels” (priority 2005, published 2006).
Values joined by “and” are separate entries in the source; they are usually repeats but may differ in a detail not shown here. Equal entries are not always repeated.

Key:
[1] = system: serum triglyceride levels; assay: 14-week open-label forced dose-escalation study of P5P in hypertensive diabetic patients: triglyceride level; format: in vivo, human; settings: for Triglycerides, Percentage Difference: average Visit 12 vs Visit 1
Protocol: Overview—The study was a 14-week, open-label, forced, dose-escalation study of the efficacy and safety of P5P administered once daily over a dose range of 250 mg to 750 mg, for the treatment of mild to moderate hypertension and hyperlipidemia, in patients with coexisting diabetes mellitus.
Patient Definition—Patients meeting all of the inclusion criteria and none of the exclusion criteria were eligible for enrollment. The primary inclusion criteria were hypertension and diabetes. […] Other than having diabetes and hypertension, patients must have been in good health for their age. A history and physical examination must have been within age-related normal limits, or if abnormal, considered clinically insignificant in the opinion of the investigator. Laboratory tests (CBC with differential, prothrombin and partial thrombo-plastin times, platelet count, and urinalysis and blood chemistry panel), must have been normal, or if abnormal, considered clinically insignificant.
Exclusion criteria included the presence or history (past 12 months) of accelerated or malignant hypertension, as evidenced by hemorrhage and/or exudate, and/or papilloedema on funduscopic examination. Patients having a history of angioedema of the face, lips, tongue, glottis or larynx when treated with ACE inhibitors were excluded. Patients having a diastolic BP>114 mm Hg, and/or systolic BP>200 mm Hg at screening were excluded. Patients with similar readings at the end of the placebo lead-in period were dropped from further participation in the study. During the placebo lead-in period patients who had signs of bradycardia (<45 bpm) or a resting heart rate of >100 bpm were not advanced to the next stage of the study, but rather dropped from further participation.
Exclusion criteria included the presence or history (past 6 months) of myocardial infarction or cerebrovascular accident and clinically significant cardiac pathology such as congestive heart failure, cardio-genic shock, non-controlled arrhythmias, acute myocarditis or pericarditus, significant valvular or congestive heart disease and unstable angina pectoris; presence or evidence of atrioventricular block (second/third degree), or sick sinus syndrome, or any other conduction defect or abnormality including the presence/history of atrial fibrillation or flutter, associated with pre-excitation syndrome; clinically significant gastrointestinal disease, renal insufficiency (serum creatinine […]), hepatic disease, or electrolyte imbalance (serum potassium <3.5 or >5.3 mmol/L, serum sodium <136->145 mmol/L); presence of bronchial asthma or chronic obstructive pulmonary disease; or the presence of any clinically significant concomitant disease that in the opinion of the investigator could interfere with the patient's participation in the study, or confound the outcome variables. Patients having any clinically significant concomitant disease that could interfere with the patient's participation in the study, or confound the outcome variables were excluded. Patients with a history of alcohol abuse or illicit drug use in the 12 months prior to beginning this protocol were excluded. Patients with a terminal illness were excluded. Patients with an arm circumference >41 cm were excluded. Pregnant females, women who were breast-feeding or women of child-bearing potential must have used adequate contraception. Patients who have had therapy with an investigational compound within 30 days prior to entry into the study were excluded. The use of the following medications was cause for exclusion, each had to have been safely discontinued prior to the placebo lead-in phase of the study, and must been withheld until the protocol had been completed: all diuretics and antihypertensive drugs (including beta-blockers, calcium-channel blockers, vasodilators, ACE inhibitors), MAO inhibitors, all anti-arrhythmic drugs, digitalis, major tranquilizers, antidepressants, cimetidine, corticosteroids, and antineoplastics. […]

[2] = system: serum triglyceride levels; assay: Rabbit hypercholesteremic model (2% cholesterol diet, 7 weeks): serum triglycerides; format: in vivo, Male New Zealand white rabbits
Protocol: The anti-atherogenic effects of P5P alone and in combination with simvastatin in a rabbit hypercholesteremic model were determined. The study compared the effects of P5P and simvastatin alone and in combination on atherosclerotic lesion formation, lipid profile (total cholesterol, LDL, HDL, triglycerides and oxidized LDL), homocysteine levels and various markers of inflammation (CRP, IL-1β, IL-6, IFN-γ and TNF-α).
Animals—Male New Zealand white rabbits 2.0-3.0 kg.
Animal Feed—The normocholesterol diet is Co-op Complete Rabbit Feed manufactured by Federated Co-operatives Limited (Saskatchewan). The 2% cholesterol diet is Test Diet 0009459 MRab/2% Chol 3/16 manufactured by Purina Mills (USA).
The rabbits were fed the normocholesterol and 2% cholesterol diet ad libitum. All animals received a timothy cube after blood sampling. […]
Group 3: Hypercholesterol diet+P5P 10 mg/kg/day
Group 4: Hypercholesterol diet+simvastatin 5 mg/kg/day
Group 5: Hypercholesterol diet+P5P 10 mg/kg/day+simvastatin 5 mg/kg/day
The rabbits were fed a normocholesterol or hypercholesterol diet for a total of 7 weeks. The normocholesterol rabbits were treated once per day with 1 ml of ethanol and 5 ml of RO water via a nasogastric tube. The hypercholesterol animals were treated once per day with either P5P (10 mg/kg), simvastatin (5 mg/kg) or a combination of P5P and simvastatin (P5P 10 mg/kg; simvastatin 5 mg/kg) via a nasogastric tube. The P5P was dissolved in 5 ml of 0.05 N NaOH so that the pH of the solution is approximately 7. The simvastatin was dissolved in 1 ml of anhydrous ethanol.
Five ml of blood was collected from the marginal ear vein of the rabbits at 0, 2, 4 and 6 weeks. Prior to blood collection the animals were sedated with 1 mg/kg of acepromazine. Following collection, the serum was separated. The serum is aliquoted (500 μl) and frozen at −80° C. until used for the assaying various lipids (total cholesterol, LDL, HDL, triglycerides, oxidized LDL) and cytokines (CRP, IL-1β, IL-6, IFN-γ and TNF-α).
At 7 weeks, the animals were anesthetized and 10 ml of blood was collected. Then the animals were euthanized, and the heart and thoracic aorta removed. The hearts and aortas were frozen in liquid nitrogen or an ethanol dry ice bath and stored at −80° C. until analyzed.
Test Articles—P5P (pyridoxal 5′-phosphate monohydrate) was purchased from Sigma (P82870). Simvastatin is obtained from ACIC Fine Chemicals Inc. Two test compound vials were provided for each animal for each day. The first vial (small) was diluted in 1 ml of anhydrous ethanol. The second vial was diluted in either 5 ml of RO water or 5 ml of 0.05 N NaOH. The diluent for each vial was clearly marked on the vial. The test solutions were prepared fresh each day just before they were administered to the animals. The stock P5P was stored in a refrigerator at 4° C. under low light conditions. The simvastatin was stored following the manufacture recommendations. The individual test vials were stored in a refrigerator at 4° C. under low light conditions.
Test Article(s) Dose, Route of Administration and Duration—The rabbits were treated orally with the drugs, once per day for a total of 7 weeks. The contents of vial one (small; 1 ml) were given to the animals first, followed by the contents of vial 2 (large; 5 ml). The test compound treatments were followed by a 5 ml RO water chaser.

[3] = hypercholesterol diet, n = 5, P5P 10 mg/kg/day, simvastatin 5 mg/kg/day oral
[4] = rabbits fed the hypercholesterol diet, 7 weeks

Cc1ncc(COP(=O)(O)O)c(C=O)c1O [P5P, pyridoxal-5′-phosphate]
Triglycerides, Percentage Difference ([1]; Table 2): −22.1%
Triglycerides, Visit 1, Average ([1]; Table 2, average of 11 patients, screening, before treatment): 246.1 mg/dL
Triglycerides, Visit 12, Average ([1]; Table 2, average of 11 patients, week 14): 191.5 mg/dL
Triglycerides, Percentage Difference ([1]; Table 3, elevated triglycerides (>150 mg/dL)): −25.7%
Triglycerides, Visit 1, Average ([1]; Table 3, elevated triglycerides (>150 mg/dL), average of 7 patients, screening): 326.9 mg/dL
Triglycerides, Visit 12, Average ([1]; Table 3, elevated triglycerides (>150 mg/dL), average of 7 patients, week 14): 242.9 mg/dL
Triglycerides, Visit 1 ([1]; Table 3, patients with elevated triglycerides (>150 mg/dL), individual patients, screening, before treatment): 150 mg/dL and 601 mg/dL and 188 mg/dL and 180 mg/dL and 530 mg/dL and 442 mg/dL and 197 mg/dL
Triglycerides, Visit 12 ([1]; Table 3, patients with elevated triglycerides (>150 mg/dL), individual patients, week 14): 166 mg/dL and 268 mg/dL and 160 mg/dL and 305 mg/dL and 286 mg/dL and 302 mg/dL and 213 mg/dL
reduced triglyceride levels by (average) ([1]; hypertensive diabetic patients, end of 14 week study): approximately 22.1%
reduced triglyceride levels by (average) ([1]; patients having elevated triglyceride levels (>150 mg/dL) prior to the study): approximately 25.7%
average serum triglyceride levels as fraction of the levels observed in the control rabbits ([2]; end of the 7 week study period): about ⅓
Triglycerides, Week 2 [2, 3]: 1.244 mmol/L
Triglycerides, Week 4 [2, 3]: 1.530 mmol/L
Triglycerides, Week 6 [2, 3]: 1.066 mmol/L
Triglycerides, Week 7 ([2]; hypercholesterol diet, n = 5, P5P 10 mg/kg/day, simvastatin 5 mg/kg/day oral, end of study): 1.038 mmol/L
Triglycerides, Week 0 ([2]; hypercholesterol diet, n = 5, P5P 10 mg/kg/day, simvastatin 5 mg/kg/day oral, start of study): 1.168 mmol/L
comparison of serum triglyceride reduction between treatments [2, 4]: more effective than simvastatin treatment
effect on serum triglyceride levels vs untreated control rabbits [2, 4]: effective in reducing serum triglyceride levels
